In ChEMBL document CHEMBL4304805, “Antibacterial activity of 2-amino-4-hydroxypyrimidine-5-carboxylates and binding to Burkholderia pseudomallei 2-C-methyl-d-erythritol-2,4-cyclodiphosphate synthase” (Bioorg Med Chem Lett, 2019):
The source made the active and inactive calls. The calls are words filed in the database; no cut-off is given here.

Legend:
[1] = biological target: T1, 2-C-methyl-D-erythritol 2,4-cyclodiphosphate synthase (Salmonella typhimurium (strain LT2 / SGSC1412 / ATCC 700720), UniProt Q8ZMF7); test: Inhibition of Salmonella typhimurium IspF by malachite green dye based assay; design: species or system Salmonella enterica subsp. enterica serovar Typhimurium
T1 sequence (Q8ZMF7 whole entry): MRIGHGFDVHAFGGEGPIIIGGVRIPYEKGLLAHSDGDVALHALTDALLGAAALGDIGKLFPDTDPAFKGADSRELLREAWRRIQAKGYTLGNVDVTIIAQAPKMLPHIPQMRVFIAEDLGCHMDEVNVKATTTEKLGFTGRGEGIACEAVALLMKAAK

[2] = tested on: Mycolicibacterium smegmatis; test: Antibacterial activity against Mycobacterium smegmatis at 0.5 mM by Kirby Bauer disk diffusion method; assay type: functional; conditions: read-out: DIZ
[3] = tested on: Burkholderia thailandensis; test: Antibacterial activity against Burkholderia thailandensis at 0.5 mM by Kirby Bauer disk diffusion method; assay type: functional; conditions: read-out: DIZ
Klebsiella pneumoniae = test: Antibacterial activity against Klebsiella pneumoniae at 0.5 mM by Kirby Bauer disk diffusion method; assay type: functional; conditions: read-out: DIZ
[4] = tested on: Corynebacterium pseudodiphtheriticum; test: Antibacterial activity against Corynebacterium pseudodiphtheriticum at 0.5 mM by Kirby Bauer disk diffusion method; assay type: functional; conditions: read-out: DIZ
Pseudomonas aeruginosa = test: Antibacterial activity against Pseudomonas aeruginosa at 0.5 mM by Kirby Bauer disk diffusion method; assay type: functional; conditions: read-out: DIZ
Corynebacterium xerosis = test: Antibacterial activity against Corynebacterium xerosis at 0.5 mM by Kirby Bauer disk diffusion method; assay type: functional; conditions: read-out: DIZ
[5] = biological target: T2, 2-C-methyl-D-erythritol 2,4-cyclodiphosphate synthase (Burkholderia pseudomallei (strain K96243)) (UniProt Q63T71); test: Binding affinity to Burkholderia pseudomallei IspF by surface plasmon resonance analysis
T2 sequence (whole entry): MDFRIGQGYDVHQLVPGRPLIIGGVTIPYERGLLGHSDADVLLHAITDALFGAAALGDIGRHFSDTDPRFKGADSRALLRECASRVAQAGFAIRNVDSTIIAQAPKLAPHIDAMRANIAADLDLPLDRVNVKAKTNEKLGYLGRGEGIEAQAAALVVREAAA

Escherichia coli = test: Antibacterial activity against Escherichia coli at 0.5 mM by Kirby Bauer disk diffusion method; assay type: functional; conditions: read-out: DIZ
Micrococcus luteus = test: Antibacterial activity against Micrococcus luteus at 0.5 mM by Kirby Bauer disk diffusion method; assay type: functional; conditions: read-out: DIZ
Bacillus cereus = test: Antibacterial activity against Bacillus cereus at 0.5 mM by Kirby Bauer disk diffusion method; assay type: functional; conditions: read-out: DIZ

Compound | IC50 [1] [µM] | zone of inhibition at 500 µM [2] [mm] | zone of inhibition at 500 µM [3] [mm] | zone of inhibition at 500 µM (Klebsiella pneumoniae) [mm] | zone of inhibition at 500 µM [4] [mm] | zone of inhibition at 500 µM (Pseudomonas aeruginosa) [mm] | zone of inhibition at 500 µM (Corynebacterium xerosis) [mm] | Activity [5] | zone of inhibition at 500 µM (Escherichia coli) [mm] | zone of inhibition at 500 µM (Micrococcus luteus) [mm] | zone of inhibition at 500 µM (Bacillus cereus) [mm]
CCOC(=O)C1=C(C)N=c2s/c(=C\c3cc(Br)c(O)c(Br)c3)c(=O)n2C1c1cccs1 (stereo not drawn) | 37 | – | – | – | – | – | – | – | – | – | –
O=C(O)c1cnc(Nc2ccc(-c3ccncc3)cc2)nc1O | 23.5 | 0 | 0 | 0 | 0 | 0 | 0 | Active | 0 | 0 | 10
CCOC(=O)c1cnc(Nc2ccc(-c3ccncc3)cc2)nc1O | – | 16 | 0 | 0 | 0 | 0 | 0 | – | 0 | 0 | 0
O=C(O)c1cnc(NCC2CCCO2)nc1O (stereo not drawn) | – | 0 | 7 | 0 | 0 | 0 | 0 | – | 0 | 0 | 0
CCOC(=O)c1cnc(NCc2cc(Cl)ccc2Cl)nc1O | – | 0 | 9 | 0 | 0 | 0 | 0 | – | 0 | 14 | 13
O=C(O)c1cnc(Nc2ccc3cn[nH]c3c2)nc1O | – | 16 | 0 | 9 | 0 | 0 | 0 | – | 0 | 0 | 9
O=C(O)c1cnc(NCCc2ccc(Cl)c(Cl)c2)nc1O | – | 11 | 11 | 8 | 0 | 0 | 0 | – | 0 | 0 | 13
CCOC(=O)c1cnc(NCc2cccc(Cl)c2)nc1O | – | 14 | 11 | 0 | 0 | 0 | 0 | – | 0 | 0 | 0
CCOC(=O)c1cnc(NCCc2ccccc2Cl)nc1O | – | 15 | 12 | 0 | 0 | 0 | 0 | – | 0 | 0 | 9
O=C(O)c1cnc(Nc2ccc(N3CCCCC3)cc2)nc1O | – | 0 | 11 | 10 | 0 | 0 | 0 | – | 11 | 0 | 12
CCOC(=O)c1cnc(NCc2ccccc2Cl)nc1O | – | 0 | 0 | 0 | 0 | 0 | 0 | – | 0 | 15 | 10
